Data published in patent US20030158254A1, “Engineering absorption of therapeutic compounds via colonic transporters” (XenoPort, Inc., priority 2002, published 2003).

Target: T1, rat PEPT1 (Rattus norvegicus, UniProt P51574)
T1 construct: Rat and human PEPT1 and PEPT2 transporter cDNAs were subcloned into a modified pGEM plasmid; expressed in transfected cells; host or cells: Xenopus laevis oocytes injected with in vitro transcribed RNA
T1 sequence (P51574 1-710): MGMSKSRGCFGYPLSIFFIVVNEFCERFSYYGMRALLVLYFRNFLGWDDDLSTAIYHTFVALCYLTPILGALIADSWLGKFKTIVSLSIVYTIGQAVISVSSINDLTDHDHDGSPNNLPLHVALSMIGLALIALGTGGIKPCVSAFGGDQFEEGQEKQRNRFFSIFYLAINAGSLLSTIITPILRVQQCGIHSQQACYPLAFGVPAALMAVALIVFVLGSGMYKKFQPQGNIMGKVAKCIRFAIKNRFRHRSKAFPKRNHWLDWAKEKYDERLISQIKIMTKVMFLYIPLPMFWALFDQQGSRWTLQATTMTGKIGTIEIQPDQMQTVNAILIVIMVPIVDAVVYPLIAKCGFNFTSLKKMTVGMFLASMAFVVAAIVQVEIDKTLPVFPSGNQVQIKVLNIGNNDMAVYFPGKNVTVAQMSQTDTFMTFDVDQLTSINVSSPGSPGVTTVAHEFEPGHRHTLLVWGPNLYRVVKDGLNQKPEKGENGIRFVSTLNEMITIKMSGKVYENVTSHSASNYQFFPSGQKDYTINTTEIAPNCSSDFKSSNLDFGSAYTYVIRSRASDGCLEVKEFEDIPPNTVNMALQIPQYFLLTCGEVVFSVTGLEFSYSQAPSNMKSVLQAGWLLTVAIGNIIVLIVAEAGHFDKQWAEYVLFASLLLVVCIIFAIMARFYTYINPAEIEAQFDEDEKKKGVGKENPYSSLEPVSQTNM
Assay: Electrogenic transport (induced current) in Xenopus oocytes transfected with rat PEPT1
Format: cell-based
Description: Rat and human PEPT1 and PEPT2 expressing CHO cell lines were prepared as described in PCT Application WO01/20331. Gabapentin-containing dipeptides were evaluated for interaction with the peptide transporters using a radiolabeled substrate uptake assay in a competitive inhibition format, as described in PCT Application WO01/20331. Transport-induced currents were also measured in Xenopus oocytes transfected with rat and human PEPT1 and PEPT2.
RNA preparation: Rat and human PEPT1 and PEPT2 transporter cDNAs were subcloned into a modified pGEM plasmid that contains 5′ and 3′ untranslated sequences from the Xenopus β-actin gene. These sequences increase RNA stability and protein expression. Plasmid cDNA was linearized and used as template for in vitro transcription (Epicentre Technologies transcription kit, 4:1 methylated:non-methylated guanosine triphosphate(GTP)).
Xenopus oocyte isolation. Xenopus laevis frogs were anesthetized by immersion in Tricaine ([…] in deionized water) for 15 min. […]
Electrophysiology measurements. Transport currents were measured 2-14 days after injection, using a standard two-electrode electrophysiology set-up (Geneclamp 500 amplifier, Digidata 1320/PCLAMP software and ADInstruments hardware and software were used for signal acquisition). […]

SMILES: CC(C)(N)C(=O)NCC1(CC(=O)O)CCCCC1 [Compound V, a-aminoisobutyryl gabapentin]
- Vmax relative to reference substrate Gly-Sar (1 mM, oocytes transfected with rat PEPT1): 50%
- Vmax relative to Gly-Sar in the presence of PEPT inhibitor Lys(ε-Dansyl)-Leu (rat PEPT transfected oocytes, with Lys(ε-Dansyl)-Leu): < 5%
